Measured values from patent US8309540.
Where two headings read alike, the source gives them in different places.

With `CCOc1cc2c3cc(c(OC)cc3n1)/C=C/C[C@@H]1CCC[C@H]1OC(=O)N[C@@H](C1CCCC1)C(=O)N1C[C@@H](C[C@H]1C(=O)OC)O2` the ring closure, yield of all isomers (from C=CC[C@@H]1CCC[C@H]1OC(=O)N[C@H](C(=O)N1C[C@H](Oc2cc(OCC)nc3cc(OC)c(C=C)cc23)C[C@H]1C(=O)OC)C1CCCC1, rcm bond, Zhan 1b, DCE, 8.78 mM, 70.0 °C, 21.0 h) was 90.9%.

Work on `COC(=O)[C@@H]1C[C@@H]2CN1C(=O)[C@H](C1CCCCC1)NC(=O)OCC(C)(C)C/C=C/c1cc3c(cc(=O)[nH]c3cc1OC)O2` yielded a ring closure, yield of all isomers (from C=CCC(C)(C)COC(=O)N[C@H](C(=O)N1C[C@H](Oc2cc(=O)[nH]c3cc(OC)c(C=C)cc23)C[C@H]1C(=O)OC)C1CCCCC1, rcm bond, Zhan 1B, DCM, 4.96 mM, 40.0 °C, 32.0 h) of 99.5%.

With `CCOc1cc2c3cc(c(OC)cc3n1)[C@H]1C[C@@H]1CC(C)(C)COC(=O)N[C@@H](C1CCCC1)C(=O)N1C[C@@H](C[C@H]1C(=O)OC)O2` the ring closure, yield of all isomers (from CCOc1cc(O[C@H]2CN[C@H](C(=O)OC)C2)c2cc(C3CC3CC(C)(C)COC(=O)N[C@H](C(=O)O)C3CCCC3)c(OC)cc2n1, amide bond, HATU/DIEA, DCM, 7.1 mM, 18.0 h) was 65.5%.
